This test concerns Shewanella oneidensis biofilms. Kind of test: Biocide efficacy on S. oneidensis biofilms grown on carbon steel in single-electrode M-MIC (live/dead staining, confocal microscopy). In kind it is cell-based. The note with it: for increase in the percentage of dead cells: 400 ppm biocide added to 12 hour biofilm on carbon steel, after 4 hours SYTO9/propidium iodide staining, 30° C. The method, then: Biofilms of Shewanella oneidensis (e.g., S. oneidensis, an iron-reducing bacterium commonly found in MIC sites) were grown on carbon steel in the single-metal system, such as M-MIC 200 as depicted in FIG. 2. In this Example 2, the single electrode comprised steel, the substrate 112 comprised glass, and the structure 104 comprised PDMS. Biofilms were developed in the system at 30° C. with a constant flow of Luria-Bertani growth medium which contained 10 g/l tryptone, 5 g/l yeast extract and 15 g/l sodium chloride being introduced at a flow rate of 0.25 mL/h. After 12 hours, flow of growth medium was stopped and 400 ppm of two common oilfield biocides, glutaraldehyde and tetrakis-hydroxymethyl-phosphonium sulfate (THPS), were added to the biofilms. After 4 hours, live and dead cells in the biofilms were stained using SYTO9 (green) and propidium iodide (red), respectively. Stained biofilms were analyzed for the percentage of live and dead cells to determine biocide efficiency. […] In addition to determining the right biocide, similar studies can be conducted with different biocide concentrations to also determine the appropriate biocide dosage.

Take `O=CCCCC=O` [glutaraldehyde]: the “increase in the percentage of dead cells” value turned out to be 2.1 fold.
For the compound “tetrakis-hydroxymethyl-phosphonium sulfate [THPS]”, the “increase in the percentage of dead cells” value came to 3.1 fold. Also, where the note is “400 ppm, 4 hours, under the conditions tested”, the “relative biocide effectiveness against S. oneidensis biofilms” value is recorded as “more effective than glutaraldehyde”.
